Legend:
HBV [1] = test: AAV mice study: serum HBV DNA copy number by fluorescence quantitative PCR; format: in vivo, C57BL/6 mice; conditions: for HBV DNA (result in words): over a 42-day treatment period, AAV mice; for HBV DNA replication level in mouse serum (treatment period): rAAV8-1.3HBV mice, i.g., ETV 0.0032 (1 W) & 0.001 (2-6 W) mg/kg qd, TLR7 agonist 20 mg/kg tiw
Description: Male C57BL/6 mice (Shanghai Slac Laboratory Animal Co., Ltd.) aged 6-8 weeks were taken, and rAAV8-1.3HBV virus (FivePlus Institute of Molecular Medicine, Beijing) was injected into the C57BL/6 mice via tail veins at a dose of 1×10^11 vg. Blood was collected from the orbit at week 2 and week 4 after the virus was injected. Serum was separated, and HBV DNA copy number in serum were measured to determine whether the model was successfully constructed or not. Mice were randomized according to the HBV DNA copy number into vehicle control group, TLR7 agonist group (20 mg/kg, tiw), entecavir (ETV) group (0.0032 (week 1, 1 W) & 0.001 (week 2-6, 2-6 W) mg/kg, qd), and TLR7 agonist and ETV combination group, each group containing 6 mice. The mice in each group were administered intragastrically for 6 weeks, and the administration was stopped for 3 week. Blood was collected from the orbit at weeks 1, 2, 3, 4, 5 and 6 during the administration period and weeks 1, 2 and 3 during the withdrawal period, and serum was separated. The HBV DNA copy number was determined by fluorescence quantitative PCR.
• i. Vehicle control group; • ii. Monotherapy group: entecavir; • iii. Monotherapy group: TLR7 agonist; • iv. Combination group (combo): TLR7 agonist and entecavir;
The test results were evaluated by Jin equation. The Jin equation is a modified method based on the Burgi method, and is also referred to the probability addition method:
The combination efficacy is calculated according to the following equation: q=EA+B/(EA+EB−EA×EB)
wherein EA denotes the efficacy of drug A monotherapy; EB denotes the efficacy of drug B monotherapy; EA+B denotes the efficacy of the combination of drugs A and B.
The significance of q: 0.85 to 1.15 indicates simple addition; 1.15 to 20 indicates enhancement; greater than 20 indicates significant enhancement; 0.85 to 0.55 indicates antagonism; less than 0.55 indicates significant antagonism. The q value takes the absolute value.

HBV [2] = test: Example 2: clinical study of TLR7 agonist combined with entecavir in chronic hepatitis B patients; format: in vivo, human; conditions: TLR7 agonist 1.0-1.8 mg once weekly, entecavir 0.5 mg/day, 24 weeks
Description: [drawing 54] (2-butoxy-7-(4-(pyrrolidin-1-ylmethyl) benzyl)-5H-pyrrolo[3,2-d]pyrimidin-4-amine); see WO2016023511 for the preparation method. The compound was prepared into tablets with strength of 0.2 mg or 0.5 mg. • Entecavir: commercially available entecavir tablets with strength of 0.5 mg. Commercially available entecavir tablets include, but are not limited to, entecavir dispersible tablets (Runzhong). • Placebo: a placebo for TLR7 agonist. 2. Enrolled Subjects
The subject should meet all of the following criteria: • 1) Male patients or non-pregnant, non-lactating female patients aged 18-65 years (inclusive); • 2) Serum virology: persistent positive serum HBsAg for 6 months or more, or with evidence of chronic hepatitis B for 6 months; • 3) Previously treated patients: historical HBV DNA inhibition less than the lower limit of normal 24 weeks before enrollment, and HBV DNA inhibition defined as <69 IU/mL determined by a Roche reagent during screening; Fibroscan ≤9.0 Kpa (fasting), and ALT≤5×ULN; • 4) Previously untreated patients: HBV DNA >10^5 copies/mL (or >20000 IU/mL) for HBeAg-positive chronic hepatitis B patients or HBV DNA >10^4 copies/mL (or >2000 IU/mL) for HBeAg-negative patients as determined by Roche's Cobas Taqman real-time quantitative PCR test v2.0, with the lower limit of detection being 20 IU/mL; Fibroscan ≤12.4 Kpa (fasting), and 1×ULN≤ALT≤5×ULN. […] 3. […]

[3] = withdrawal period day 49, after 6 weeks of i.g. administration
[4] = withdrawal period day 56, after 6 weeks of i.g. administration
[5] = withdrawal period day 63, after 6 weeks of i.g. administration

For `CCCCOc1nc(N)c2[nH]cc(Cc3ccc(CN4CCCC4)cc3)c2n1` [TLR7 agonist, 2-butoxy-7-(4-(pyrrolidin-1-ylmethyl)benzyl)-5H-pyrrolo[3,2-d]pyrimidin-4-amine], the “HBV DNA (result in words)” value (HBV [1]) was “significantly reduced”, the “HBV DNA replication level in mouse serum (treatment period)” value (HBV [1]; treatment period day 0) was 7.53 ± 0.15 logic lU/mL and the “HBV DNA replication level in mouse serum (treatment period)” value (HBV [1]; treatment period day 7) was 6.64 ± 1.33 logic lU/mL. For the same compound, the “HBV DNA replication level in mouse serum (treatment period)” value (HBV [1]; treatment period day 14) was 4.55 ± 1.41 logic lU/mL, the “HBV DNA replication level in mouse serum (treatment period)” value (HBV [1]; treatment period day 21) was 4.13 ± 0.67 logic lU/mL and the “HBV DNA replication level in mouse serum (treatment period)” value (HBV [1]; treatment period day 28) was 3.64 ± 0.21 logic lU/mL. The “HBV DNA replication level in mouse serum (treatment period)” value (HBV [1]; treatment period day 35) was 3.61 ± 0.24 logic lU/mL, the “HBV DNA replication level in mouse serum (treatment period)” value (HBV [1]; treatment period day 42) was 3.41 ± 0.33 logic lU/mL and the “HBV DNA replication level in mouse serum (withdrawal period)” value (HBV [1]; [3]) was 4.37 ± 0.48 log10 IU/mL. For the same compound, the “HBV DNA replication level in mouse serum (withdrawal period)” value (HBV [1]; [4]) was 4.86 ± 0.41 log10 IU/mL, the “HBV DNA replication level in mouse serum (withdrawal period)” value (HBV [1]; [5]) was 5.26 ± 0.39 log10 IU/mL and the “HBV DNA replication (result in words)” value (HBV [2]) was “achieved inhibition”.

For `C=C1[C@H](CO)[C@@H](O)C[C@@H]1n1cnc2c(=O)[nH]c(N)nc21` [entecavir, 2-amino-9-[(1S,3R,4S)-4-hydroxy-3-hydroxymethyl-2-methylenecyclopentyl]-1,9-dihydro-6H-purin-6-one], the “HBV DNA (result in words)” value (HBV [1]) was “significantly reduced”, the “HBV DNA replication level in mouse serum (treatment period)” value (HBV [1]; treatment period day 0) was 7.53 ± 0.15 logic lU/mL and the “HBV DNA replication level in mouse serum (treatment period)” value (HBV [1]; treatment period day 7) was 5.27 ± 0.18 logic lU/mL. For the same compound, the “HBV DNA replication level in mouse serum (treatment period)” value (HBV [1]; treatment period day 14) was 5.66 ± 0.14 logic lU/mL, the “HBV DNA replication level in mouse serum (treatment period)” value (HBV [1]; treatment period day 21) was 5.96 ± 0.28 logic lU/mL and the “HBV DNA replication level in mouse serum (treatment period)” value (HBV [1]; treatment period day 28) was 5.34 ± 0.43 logic lU/mL. The “HBV DNA replication level in mouse serum (treatment period)” value (HBV [1]; treatment period day 35) was 5.62 ± 0.36 logic lU/mL, the “HBV DNA replication level in mouse serum (treatment period)” value (HBV [1]; treatment period day 42) was 6.44 ± 0.46 logic lU/mL and the “HBV DNA replication level in mouse serum (withdrawal period)” value (HBV [1]; [3]) was 6.97 ± 0.72 log10 IU/mL. For the same compound, the “HBV DNA replication level in mouse serum (withdrawal period)” value (HBV [1]; [4]) was 7.32 ± 0.73 log10 IU/mL, the “HBV DNA replication level in mouse serum (withdrawal period)” value (HBV [1]; [5]) was 7.33 ± 0.80 log10 IU/mL and the “HBV DNA replication (result in words)” value (HBV [2]) was “inhibitory effects”.

From patent publication US12336996B2, “Drug combination containing TLR7 agonist” (Chia Tai Tianqing Pharmaceutical Group Co., Ltd., priority 2019, dated 2025)
